According to patent US20160137639A1, “TRIAZOLE-ISOXAZOLE COMPOUND AND MEDICAL USE THEREOF” (JAPAN TOBACCO INC., priority 2012, published 2016):
Where two headings read alike, the source gives them in different places.

Columns and labels:
[1] = target: T1, human RORγ (Homo sapiens, UniProt P51449); experiment: Luciferase reporter gene assay of inhibitory effect against RORγ transcriptional activity (GAL4-hRORγ plasmid in CHO cells); type: cell-based
T1 construct: human, NM_005060.3 and from Ser253 to Lys518; expressed in transfected cells; host or cells: CHO cells (transient co-transfection with pG5-Luc reporter)
T1 sequence (P51449 253-518): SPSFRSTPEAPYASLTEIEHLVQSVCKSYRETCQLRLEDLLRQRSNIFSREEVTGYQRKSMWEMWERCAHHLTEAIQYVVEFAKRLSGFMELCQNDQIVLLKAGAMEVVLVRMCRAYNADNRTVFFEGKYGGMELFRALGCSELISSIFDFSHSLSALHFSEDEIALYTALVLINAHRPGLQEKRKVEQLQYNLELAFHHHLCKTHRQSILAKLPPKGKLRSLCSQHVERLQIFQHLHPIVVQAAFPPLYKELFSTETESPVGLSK

[2] = target: T2, mouse RORγ (Mus musculus, UniProt P51450); experiment: Luciferase reporter gene assay of inhibitory effect against RORγ transcriptional activity (GAL4-mRORγ plasmid in CHO cells); type: cell-based
T2 construct: mouse, NM_011281.2 and from Ile251 to Lys516; expressed in transfected cells; host or cells: CHO cells (transient co-transfection with pG5-Luc reporter)
T2 sequence (P51450 251-516): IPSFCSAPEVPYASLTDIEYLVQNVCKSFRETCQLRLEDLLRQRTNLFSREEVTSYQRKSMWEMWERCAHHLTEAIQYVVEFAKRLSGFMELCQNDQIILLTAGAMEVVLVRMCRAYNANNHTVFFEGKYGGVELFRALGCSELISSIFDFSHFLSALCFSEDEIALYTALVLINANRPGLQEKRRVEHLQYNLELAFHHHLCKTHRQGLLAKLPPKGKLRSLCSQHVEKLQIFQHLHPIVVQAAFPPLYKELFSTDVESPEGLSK
How it was run: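 Readout is intracellular luciferase after 2-day compound exposure (8 concentrations, 0.1% DMSO) in CHO cells expressing GAL4 fused to mouse RORγ LBD residues Ile251–Lys516 plus pG5-Luc reporter. EC50 fitted from %-of-control; points showing resazurin-detected cytotoxicity dropped.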

Row | Compound | EC50 ([1]; read-out: LUC EC50 hRORg) | EC50 ([2]; read-out: LUC EC50 mRORg) | EC50 ([1]; read-out: LUC EC50 (μM) hRORg) | EC50 ([2]; read-out: LUC EC50 (μM) mRORg)
1 | Cc1ccc(NC(=O)C[C@H](OC(C)C)c2nnc(-c3cc(CC(C)C)on3)n2C2CC2)c(C)c1 [Example F-575] | < 3 µM | < 3 µM | – | –
2 | Cc1ccc(NC(=O)CC(CN2C(=O)N(C)C(C)(C)C2=O)c2nnc(CCCC(C)(C)C)n2C2CC2)c(C)c1 (racemic) [Example F-508] | > 3 µM | > 3 µM | – | –
3 | CCn1c(CCC(=O)Nc2cccc3ccccc23)nnc1CCc1ccccc1 [Example F-12] | – | – | < 3 µM | < 3 µM
4 | CC(C)CCc1nnc(CCC(=O)NCCc2ccccc2)n1C1CC1 [Example F-58] | – | – | > 3 µM | > 3 µM
5 | CC(=O)N1C[C@H](C(=O)Nc2ccc(C)cc2C)[C@@H](c2nnc(CCC3CC3(C)C)n2C2CC2)C1 (single isomer, unassigned) [Example F-328] | – | – | < 3 µM | < 3 µM
6 | Cc1ccc(NC(=O)[C@H]2CC(N(C)C)C[C@@H]2c2nnc([C@H]3C[C@@H](CC(C)C)C3)n2C2CC2)c(C)c1 (single isomer, unassigned) [Example F-534] | < 3 µM | < 3 µM | – | –
7 | COc1cc(NC(=O)C[C@H](CCO)c2nnc([C@H]3C[C@@H](CC(C)C)C3)n2C2CC2)ccc1C [Example F-526] | < 3 µM | < 3 µM | – | –
8 | COc1cccc(CC(CC(=O)Nc2ccc(C)cc2C)c2nnc([C@H]3C[C@@H](CC(C)C)C3)n2C2CC2)n1 (mixture of isomers) [Example F-504] | < 3 µM | < 3 µM | – | –
9 | COc1cc(C)ccc1CNC(=O)[C@H]1CCN(C(C)=O)[C@@H]1c1nnc(CCCC(C)(C)C)n1C1CC1 [Example F-297] | – | – | < 3 µM | < 3 µM
10 | COc1cc(C)ccc1CNC(=O)CC(CCO)c1nnc(CCC2CCCCC2)n1C1CC1 (racemic) [Example F-249] | – | – | < 3 µM | < 3 µM
11 | Cc1ccc(NC(=O)C[C@H](CCC(=O)O)c2cc([C@H]3C[C@@H](CC(C)(C)C)C3)on2)c(Cl)c1 [Example F-676] | < 3 µM | < 3 µM | – | –
12 | Cc1ccc(NC(=O)CCc2nnc(CCC(C)C)n2C2CC2)cc1 [Example F-66] | – | – | > 3 µM | > 3 µM
13 | COCCC(CC(=O)Nc1ccc(C)cc1C)c1nnc(CCC2CCCCC2)n1C1CC1 (racemic) [Example F-396] | – | – | < 3 µM | < 3 µM
14 | Cc1ccc(NC(=O)CCc2nnc([C@H]3C[C@@H](CC(C)C)C3)n2C2CC2)c(C)c1 [Example F-358] | – | – | < 3 µM | < 3 µM
15 | CCCCc1nnc(CCC(=O)Nc2cccc(Cl)c2C)n1C1CC1 [Example F-105] | – | – | > 3 µM | > 3 µM
16 | CC(=O)N1C[C@@H](C(=O)Nc2ccc(C)cc2C)[C@H](c2nnc(-c3ccc(CC(C)C)cc3)n2C2CC2)C1 [Example F-407] | – | – | > 3 µM | > 3 µM
17 | Cc1ccc(NC(=O)C[C@H](CCC(=O)O)c2noc3c2C(C)CCC3CCC(C)C)c(Cl)c1 (single isomer, unassigned) [Example F-693] | < 3 µM | < 3 µM | – | –
18 | Cc1ccc(NC(=O)C[C@H](CCC(=O)O)c2noc(-c3ncc(CC(C)C)o3)c2C2CC2)c(Cl)c1 [Example E-18] | – | – | < 3 µM | < 3 µM
19 | Cc1cc(Cl)c(NC(=O)C[C@H](CCC(=O)O)c2noc(-c3cc(CCC(C)(C)C)on3)c2C2CC2)cc1F [Example E-45] | – | – | < 3 µM | < 3 µM
20 | CCn1c(CCC(=O)Nc2cccc(Cl)c2C)nnc1CCC(C)(C)C [Example F-53] | – | – | > 3 µM | < 3 µM
21 | Cc1ccc(NC(=O)CCc2nnc(CCC(C)C)n2C2CC2)c(C)c1 [Example F-79] | – | – | > 3 µM | > 3 µM
22 | Cc1ccc(NC(=O)[C@@H](CCC(=O)O)Cc2noc([C@H]3C[C@@H](CC(C)(C)C)C3)c2C2CC2)c(Cl)c1 [Example F-684, (S)-4-(2-chloro-4-methyl-phenylcarbamoyl)-5-{4-cyclopropyl-5-[3-(2,2-dimethyl-propyl)-cyclobutyl]-isoxazol-3-yl}-pentanoic acid] | < 3 µM | < 3 µM | – | –
23 | Cc1ccc(NC(=O)C[C@H](CCC(=O)O)c2noc(-c3cc(CC(C)C)n(C)n3)c2C2CC2)c(Cl)c1 [Example E-26] | – | – | < 3 µM | < 3 µM
24 | Cc1c(Cl)cccc1NC(=O)CCc1nnc(CCN2CCC(F)(F)CC2)n1C1CC1 [Example F-261] | – | – | > 3 µM | < 3 µM
